One series deals with S. pombe. Kind of series: MIC50 by microbroth dilution. The format is cell-based. To be noted: Schizosaccharomyces pombe. How it is done:
(§1) A single colony was picked from each streak to prepare overnight in 5 mL fresh YPD broth and placed into a tilted rotating incubator set at 30 °C and 40 rpm overnight. After ~16–20 h, a fresh dilution in media (1:200) was made and used for the experiment. […] Finally, diluted culture was added to each well of a sterile 96-well plate containing serially diluted aliquots of each RTIL to a total volume of 100 µL. The plate was incubated at 30 °C overnight with shaking for 24 and 48 h. At both timepoints, the yeast was manually resuspended in the plate by pipetting and we measured the OD600 using a Spectramax M5 multimode plate reader (Molecular Devices, San Jose, CA, USA).
(§2) The four species of yeast tested included three common lab strains of non-pathogenic yeast strains, S. boulardii, S. cerevisiae, and S. pombe, and one common human pathogen, C. albicans.
(In general: Dilution methods test growth across graded concentrations, often in twofold steps.)

Series [1] deals with S. cerevisiae. Kind of series: MIC50 by microbroth dilution. It counts as cell-based. The conditions noted are these: Saccharomyces cerevisiae. The procedure:
as §1, §2

In another series the test system is S. boulardii. Kind of series: MIC50 by microbroth dilution. The format is cell-based. To be noted: Saccharomyces cerevisiae. How it is done: as §1, §2
For the next series, the system named is C. albicans. Put plainly: MIC50 by microbroth dilution. The conditions noted are these: Candida albicans, 48 h. The format is cell-based. How it is done: as §1, §2
In a further series the test system is HeLa cells. Put plainly: Checkerboard cytotoxicity assay IL + Clotrimazole, CellTiter-Blue. How it is done:
HeLa cells (Kyoto line) were grown at 37 °C in 5% CO2 using DMEM media with 4.5 g/L glucose + Sodium Pyruvate + L-Glutamine (VWRV02-0101) with 10% FBS. Antibiotics such as Pen/Strep were not used during treatment with ILs or AFs to exclude the possibility of interaction with other antibiotics. HeLa cells were grown to 70–90% confluency in T75 dishes; cells were dissociated with Trypsin/EDTA […] for 3 min and resuspended in 25 mL DMEM +10% FBS; 180 μL cells in media were added to each of the 96 wells on the plasma-treated culture plate and incubated at 37 °C overnight. Solutions of Clotrimazole plus either [HMIM]Cl and [OMIM]Cl were created and 20 μL of IL, AF, or IL + AF were added to 96-well plate and incubated at 37 °C for 24 h. Promega CellTiter-Blue Cell Viability reagent was used to evaluate cytotoxicity in accordance with the manufacturer’s guidelines. For each well, 20 μL of CellTiter-Blue was added and then the plates were incubated for either 1, 2, or 4 h and fluorescence was measured at Ex/EM 485/590 nm using a Biotek Synergy HT fluorometer Winooski, VT USA. EC50 and FIC calculations were performed using these treatments. EC50 calculations were performed using ATTB Bioquest online EC50 calculator and FIC scores were calculated as described in Doern et al..
One open question is whether addition of either of these ILs at sub-cytotoxic concentrations can improve effectiveness of AFs in fungi vs. mammalian cells. To evaluate this, we performed checkerboard assays for both [HMIM]Cl and [OMIM]Cl in the presence of Clotrimazole and calculated FIC scores as described in C. albicans checkerboard assays.

Series [2] deals with S. cerevisiae. Put plainly: Kirby–Bauer disk diffusion assay on IL-containing YPD plates. It counts as cell-based. To be noted: for Zone of inhibition (ZOI) diameter: 100 = no growth on plate. How it is done: Assessment of fungal growth on YPD plates with AFs + ILs served as an indicator for the combined efficacy of treatment of ILs and AFs. YPD agar plates were made with addition of increasing concentrations of [HMIM]Cl at 0, 2.5, 6.25, and 25 mM or [OMIM]Cl at 0, 0.25, 0.625, and 2.5 mM. Plates solidified and dried on bench for 24 h before use. IN total, 400 μL of S. cerevisiae or C. albicans liquid culture at mid-log phase OD600 0.5 was spread using sterile glass beads to achieve even distribution. Following addition of culture, the plates were allowed to dry for 30 min before the addition of antifungal disks. Antifungal-infused disks were prepared using the stock solutions of solubilized antibiotics; 15 μL of each of the 4 azole antifungals at stock concentrations was pipetted onto a sterile 6 mm cellulose disk (BD). […] After plate drying was complete, sterile forceps were used to transfer the disks to the media, and the plate was grown upright in an incubator overnight at 30 °C. The following day, photographs were taken of the plates to visualize the zone of inhibition (ZOI) created by the combined treatment. Adobe Illustrator 2023 CC was used to perform digital measurements of ZOI diameters.
To assess the potential for combinatorial effects of ILs and AFs in yeast, Kirby–Bauer disk diffusion assays were performed for C. albicans and S. cerevisiae for [HMIM]Cl and [OMIM]Cl with all four AFs. […] The addition of 6 mm cellulose disks infused with equal volumes of solubilized AFs to the plates occurred after plating of C. albicans or S. cerevisiae, allowing for growth for 48 h at 23 °C, at which point the plates were evaluated for the establishment of zones of inhibition (ZOI). Digital pictures were acquired of all plates, and measurements of ZOI diameter were performed digitally as described in the Methods. […] With progressively increasing amounts of both [HMIM]Cl and [OMIM]Cl, ZOIs increased for all Afs, including Fluconazole and Itraconazole, which appear to be ineffective without IL in the Kirby–Bauer disk assay. Experiments were performed in triplicate and ZOIs were measured for all plates.
Similar experiments testing the combinatorial effects of [HMIM]Cl or [OMIM]Cl were performed on S. cerevisiae using Kirby–Bauer disk assays and quantified for changes in ZOI (Appendix Figure A1). ZOI measurements (mm) from both C. albicans and S. cerevisiae were compiled, and the averages are shown numerically as well as with shading and plotted in Figure 3. […] Finally, at intermediate concentrations of both [HMIM]Cl and [OMIM]Cl, a combinatorial effect of IL + AF was evident for all four AFs in S. cerevisiae, similar to observations in C. albicans.
(In general: In agar diffusion tests the substance spreads into inoculated agar from a disc or well.)

Setting [3] is: 50% growth after 48 h in YPD media, OD600, read-out: MIC50.

Data on 3 compounds can be found in publication PMC12730265, “Combinatorial Antimicrobial Effects of Imidazolium-Based Ionic Liquids and Antifungals on Model Fungal Organisms” (Biomolecules, 2025).

Read-outs that look alike come from different tables or passages of the source.

On to `Clc1ccccc1C(c1ccccc1)(c1ccccc1)n1ccnc1` [Clotrimazole], for which the MIC50 with S. pombe (setting [3]), in the series on S. cerevisiae [1] (setting [3]), in the series with S. boulardii (setting [3]) and with C. albicans (setting [3]) was 1 µg/mL throughout. Also, in the series on HeLa cells (human, 24 h), the “Clotrimazole concentration used for FIC, alone” value is reported as 250 mg/L. Besides, the “Zone of inhibition (ZOI) diameter” value in the series on S. cerevisiae [2] ([HMIM]Cl 0 mM in plate) turned out to be 21.67 mm; with S. cerevisiae [2] ([HMIM]Cl 2.5 mM in plate), 26.67 mm; in the series on S. cerevisiae [2] ([HMIM]Cl 6.25 mM in plate), 50.33 mm; in the series with S. cerevisiae [2] ([HMIM]Cl 25 mM in plate), 100 mm; in the series on S. cerevisiae [2] ([OMIM]Cl 0 M in plate), 21.67 mm; in the series with S. cerevisiae [2] ([OMIM]Cl 0.25 mM in plate), 30 mm. Besides, the “Zone of inhibition (ZOI) diameter” value is recorded as 47.33 mm in the series with S. cerevisiae [2] ([OMIM]Cl 0.625 mM in plate) and 100 mm in the series with S. cerevisiae [2] ([OMIM]Cl 2.5 mM in plate).

As to `CCCCCCn1cc[n+](C)c1.[Cl-]` [[HMIM]Cl, 1-hexyl-3-methylimidazolium chloride], the MIC50 with S. pombe (48 h) was determined as 6.25 mM; with S. cerevisiae [1] (48 h) it was 6.25 mM; with S. boulardii (48 h) it was 6.25 mM; against C. albicans, 25 mM. Moreover, in the series on HeLa cells (human, 24 h), the “IL concentration used for FIC, IL alone” value was 12.5 mM. In addition, in the series on HeLa cells (human, 24 h), the “IL concentration used for FIC, in combination” value is listed as 12.5 mM. For the same compound, the “growth of S. cerevisiae on IL plate” value in the series with S. cerevisiae [2] (plates with 25 mM [HMIM]Cl) is listed as “complete inability to grow”.

Turning to `CCCCCCCCn1cc[n+](C)c1.[Cl-]` [[OMIM]Cl, 1-octyl-3-methylimidazolium chloride], the MIC50 in the series on S. pombe (setting [3]) came out at 1.25 mM; in the series with S. cerevisiae [1] (setting [3]), 0.625 mM; in the series with S. boulardii (setting [3]), 0.625 mM; in the series on C. albicans (setting [3]), 3.12 mM. In addition, the “IL concentration used for FIC, IL alone” value in the series with HeLa cells (IL alone) was 3.125 mM. The “Cell Titer Blue Assay plate reading” value in the series with HeLa cells (OMIM[Cl] 0.195312, Clotrimazole 0.03125 mg/mL) stood at 553; in the series on HeLa cells (OMIM[Cl] 0.195312, Clotrimazole 0.0625 mg/mL), 506; in the series on HeLa cells (OMIM[Cl] 0.195312, Clotrimazole 0.125 mg/mL) it was 440; in the series with HeLa cells (OMIM[Cl] 0.195312, Clotrimazole 0.25 mg/mL), 135; in the series with HeLa cells (OMIM[Cl] 0.195312, Clotrimazole 0.5 mg/mL), 30; in the series with HeLa cells (OMIM[Cl] 0.195312, PBS instead of Clotrimazole) it was 524. The “Cell Titer Blue Assay plate reading” value with HeLa cells (OMIM[Cl] 0.390625, Clotrimazole 0.03125 mg/mL) stood at 343; in the series with HeLa cells (OMIM[Cl] 0.390625, Clotrimazole 0.0625 mg/mL), 333; in the series with HeLa cells (OMIM[Cl] 0.390625, Clotrimazole 0.125 mg/mL), 92; in the series with HeLa cells (OMIM[Cl] 0.390625, Clotrimazole 0.25 mg/mL) it was 161; with HeLa cells (OMIM[Cl] 0.390625, Clotrimazole 0.5 mg/mL), 31; with HeLa cells (OMIM[Cl] 0.390625, PBS instead of Clotrimazole), 533. For the same compound, the “Cell Titer Blue Assay plate reading” value with HeLa cells (OMIM[Cl] 0.78125, Clotrimazole 0.03125 mg/mL) is recorded as 128; with HeLa cells (OMIM[Cl] 0.78125, Clotrimazole 0.0625 mg/mL) it was 121; with HeLa cells (OMIM[Cl] 0.78125, Clotrimazole 0.125 mg/mL), 60; in the series with HeLa cells (OMIM[Cl] 0.78125, Clotrimazole 0.25 mg/mL), 66; with HeLa cells (OMIM[Cl] 0.78125, Clotrimazole 0.5 mg/mL) it was 32; in the series with HeLa cells (OMIM[Cl] 0.78125, PBS instead of Clotrimazole), 180. Besides, the “Cell Titer Blue Assay plate reading” value came out at 126 in the series with HeLa cells (OMIM[Cl] 1.5625, Clotrimazole 0.03125 mg/mL); 45 in the series with HeLa cells (OMIM[Cl] 1.5625, Clotrimazole 0.0625 mg/mL); 58 with HeLa cells (OMIM[Cl] 1.5625, Clotrimazole 0.125 mg/mL); 33 in the series with HeLa cells (OMIM[Cl] 1.5625, Clotrimazole 0.25 mg/mL); 36 in the series on HeLa cells (OMIM[Cl] 1.5625, Clotrimazole 0.5 mg/mL); 206 in the series on HeLa cells (OMIM[Cl] 1.5625, PBS instead of Clotrimazole). Moreover, the “Cell Titer Blue Assay plate reading” value in the series with HeLa cells (OMIM[Cl] 3.125, Clotrimazole 0.03125 mg/mL) is reported as 47; with HeLa cells (OMIM[Cl] 3.125, Clotrimazole 0.0625 mg/mL), 37; with HeLa cells (OMIM[Cl] 3.125, Clotrimazole 0.125 mg/mL), 36; in the series with HeLa cells (OMIM[Cl] 3.125, Clotrimazole 0.25 mg/mL), 36; with HeLa cells (OMIM[Cl] 3.125, Clotrimazole 0.5 mg/mL) it was 38; with HeLa cells (OMIM[Cl] 3.125, PBS instead of Clotrimazole) it was 47. In addition, the “Cell Titer Blue Assay plate reading” value was 41 with HeLa cells (OMIM[Cl] 6.25, Clotrimazole 0.03125 mg/mL); 38 with HeLa cells (OMIM[Cl] 6.25, Clotrimazole 0.0625 mg/mL); 39 with HeLa cells (OMIM[Cl] 6.25, Clotrimazole 0.125 mg/mL); 39 with HeLa cells (OMIM[Cl] 6.25, Clotrimazole 0.25 mg/mL); 40 with HeLa cells (OMIM[Cl] 6.25, Clotrimazole 0.5 mg/mL); 41 in the series on HeLa cells (OMIM[Cl] 6.25, PBS instead of Clotrimazole). Moreover, the “Cell Titer Blue Assay plate reading” value in the series with HeLa cells (OMIM[Cl] 12.5, Clotrimazole 0.03125 mg/mL) amounted to 39; with HeLa cells (OMIM[Cl] 12.5, Clotrimazole 0.0625 mg/mL) it was 39; in the series with HeLa cells (OMIM[Cl] 12.5, Clotrimazole 0.125 mg/mL) it was 38; in the series on HeLa cells (OMIM[Cl] 12.5, Clotrimazole 0.25 mg/mL), 37; in the series on HeLa cells (OMIM[Cl] 12.5, Clotrimazole 0.5 mg/mL), 40; in the series on HeLa cells (OMIM[Cl] 12.5, PBS instead of Clotrimazole), 38. Also, the “growth of S. cerevisiae on IL plate” value in the series with S. cerevisiae [2] (plates with 2.5 mM [OMIM]Cl) is reported as “complete inability to grow”.

As a reminder, the MIC50 is the lowest concentration that inhibits either 50% of growth or 50% of the strains tested, depending on the study.
